{"source": "patent US20060276537A1", "about": "“Use of ladostigil for the treatment of multiple sclerosis” (priority 2005, published 2006)", "key": {"[1]": {"assay": "Body weight of the EAE mice (Table 7)", "assay_type": "in vivo", "description": "These differences were statistically significant (p<0.000, Manova). According to the subsequent Post Hoc comparison (LSD), all the groups were different from the control (Table 7). […] On day 14, four days after the onset of the disease, sick mice lost an average of 2 g of weight. The average mean weight of GA-blocked mice was reduced by only 0.4 g. On day 23 the control group reached the lowest weight, 14.6 g."}, "[2]": {"tested_on": "chronic progressive EAE induced by pMOG35-55 in C57BL/6 mice", "assay": "MOG-induced chronic progressive EAE in C57BL/6 mice, clinical scoring", "assay_type": "in vivo", "conditions": "GA blocking, dose 250 mg/kg, given with inoculum on day 0", "description": "MOG (Myelin oligodendrocyte glycoprotein) is a member of the immunoglobulin superfamily expressed exclusively in CNS myelin. It is one of the most encephalitogenic proteins and is widely used to induce EAE in different rodent strains. In C57BL/6 mice, immunization with the MOG peptide pMOG35-55 in CFA induces chronic progressive EAE. Ladostigil was tested in this model in order to assess its ability to inhibit the disease.\nEAE was induced by subcutaneous injection of encephalitogenic emulsion at a volume of 0.2 ml/mouse in the right flank. On the day of induction, pertussis toxin was injected intraperitoneally at a volume dose of 0.2 ml/mouse. The injection of the pertussis toxin was repeated after 48 hours. At the end of the experiment, 6-7 brains from control and the ladostigil groups were dissected and frozen at −70° C. for CHE (cholinesterase) determination and 6-7 brains were dissected and frozen for MAO (monoamine oxidase) determination. Before sacrifice, blood for ChE determination was taken on heparine, hemolysed 1/20 in 10 mM cold phosphate buffer pH=6.0 and stored at −70° C. until the assay.\n90 female C57Bl/6 mice 8-10 weeks old obtained from Harlan animal breeding center were used in the study. Mice were allocated randomly into 6 groups:\nBoth compounds were administered by gavage once daily during the whole experiment (30 days) at a volume of 0.2 ml/mouse.\nThe mice were observed daily from the 10th day post-EAE induction and the EAE clinical signs were scored. The scores were recorded on observation cards according to the grades described in Table 5:\nThe number of sick animals (animals with a score of ≧1 at any point) in each group was summed.\nThe incidence of disease and the % activity were calculated as follows: [formula] [formula] [formula]\nThe maximal scores of all mice in each group were summed.\nThe mean maximal score and the % activity of the group were calculated as follows: [formula] [formula] [formula]\nThe individual scores (IMS) of each of the mice during the observation period were summed (score 6 will be counted forward).\nThe GMS of the group and its % activity were calculated as follows: [formula] [formula] [formula]\nTheir dates of onset were calculated as day of termination +1."}}, "data": [{"substance": "glatiramer acetate [GA, reference compound]", "values": [{"measurement": "Reduction of average mean weight", "setting": "[1]; GA-blocked mice, day 14", "value": 0.4, "unit": "g"}, {"measurement": "Weight of EAE mice", "setting": "[1]; day 2 after induction, GA blocking, dose 250 mg/kg", "value": "18.6 ± 0.8", "unit": "g"}, {"measurement": "Incidence", "setting": "[2]", "value": "14/15"}, {"measurement": "Mortality", "setting": "[2]", "value": "0/15"}, {"measurement": "% Inhibition", "setting": "[2]; vs control group mean score", "value": 54.6, "unit": "%"}]}]}
